Measured values: patent EP1991554B1, “THIOPYR[…] COMPOUNDS, METHOD FOR PREPARING THEREOF AND COMPOSITIONS CONTAINING THEM” (C4T S.C. a.r.l., priority 2006, dated 2007)
Counter-ions that a name gives are not always drawn.

What was measured:
[1] = system: γδ T lymphocyte line; experiment: ELISA test for the production of TNFα in the γδ T lymphocyte line; assay type: cell-based, human; conditions: for EC50: Homo sapiens, T-lymphocyte, 24 h
Method: A buffy coat from a healthy donor with a high basal percentage of γδ T lymphocytes (approximately 6%) was selected for growth of the γδ T lymphocyte lines.
The PBMCs were separated out and cultured at a concentration of 1 x 10^6 cells/ml in the presence of IPP (160 ng/ml) and IL-2 (100 U/ml).
After 7 days incubation at 37°C with 5% CO2, 3 ml of medium were sampled and replaced with the same amount of fresh medium ennched with IL-2 (final concentration 100 U/ml).
After a further 7 days in the incubator an aliquot of the cultured cells was taken to label the membrane and measure the percentage of γδ T cells obtained from the expansion.
This cell line was then used to evaluate the production of TNFα following stimulation of the cells with the compounds under investigation, using an ELISA test.
In the ELISA test there were used cells from the line produced as disclosed above in a concentration of 2.5 x 10^5 cells/ml (5 x 10^4 cells/well).
The cells were then stimulated with the compounds under investigation and with isopentenyl pyrophosphate (IPP) as a reference at scalar doses.
After 24 hours the supernatants from the wells containing the stimulated cells were sampled and the ELISA test was carried out using the "Human TNFα Screening Set" kit (Endogen). The kit provides for treatment with an anti-TNFα biotinylate polyclonal antibody, the addition of peroxidase conjugated with streptavidine and quantitative determination using a chromogenic substrate. The plates were read spectrophotometrically at 450 nm.
Each compound was tested in duplicate.

[2] = system: γδ T lymphocytes of peripheral blood mononucleate cells (PBMCs); experiment: Cytokine production assay on peripheral blood mononucleate cells (PBMCs), cytofluorimetry; assay type: cell-based, human; conditions: for activation at 10 µM / activation at 100 µM / activation at 1000 µM: Homo sapiens, PBMC, read-out: % increase in γδ T lymphocytes producing TNFα; for % increase in γδ T lymphocytes producing INFγ: IPP (10 µM) std = 100
Method: γδ T lymphocyte activation was tested by an assay involving the production of cytokines such as TNFα and IFNγ by the γδ T lymphocytes of peripheral blood mononucleate cells (PBMCs) from healthy donors (Poccia, F. et al., The Journal of Immunology 1997, 159, 6009-6017).
Mononucleate cells (PBMCs) were isolated from the peripheral blood of healthy donors, cultured at 37°C on a complete medium comprising RPMI 1640, 10% FCS, 1% L-glutamine, 1% penicillin-streptomycin in the presence of interleukin 2 (IL-2), T lymphocyte growth factor, and 5% CO2 in a controlled humidity environment, and then stimulated with isopentenyl pyrophosphate (IPP 10 µM) as a positive activation control and with various doses (10 µM, 100 µM) and 1000 µM) of compounds according to the invention, respectively.
Then it was performed a cytofluorimetric labelling using specific monoclonal antibodies (membrane labelling for the expansion and intra-cytoplasm labelling for the cytokines) and a cytofluorimetric measurement in order to establish the percentage of γδ T cells producing TNFα and IFNγ (cytokine production assay).

[3] = system: alkaline phosphatase; experiment: Stability test in alkaline aqueous solution in the presence of alkaline phosphatase (enzyme hydrolysis), HPLC-MS; conditions: for resistance to hydrolysis: in words, summary of Table 1; for Percentage of non-hydrolysed compound: 2 mM, pH 8 TRIS-HCl buffer, alkaline phosphatase, ambient temperature
Method: The following compounds were selected for the stability tests in alkaline aqueous solution in the presence of alkaline phosphatase (SIGMA Phosphatase, alkaline-Agarose from calf intestine-P0762): [drawing 25] • Solution A: • pH 8 solution: TRIS-HCl buffer and 2 mM of MgCl2; • Solution B: • comparison versus solution A: 2 mM isopentenyl pyrophosphate (IPP) solution; • Solution C: • 2 mM isopentenyl thiopyrophosphate solution (Compound 8) of this invention into Solution A, • Solution D: • Solution of phosphatase enzyme immobilised on a solid substrate (agarose), 50 biological units into 10 ml of Solution A.
20 µl of Solution D were added to 0.5 ml of Solution B. The system was allowed to stand at ambient temperature under stirring. The solution was filtered to remove the enzyme and it was then analysed with HPLC-MS at predetermined time intervals (20, 30, 40, 50 and 60 minutes).
The same procedure was carried out with Solution C.

[4] = system: Vγ9Vδ2 cells; experiment: Peripheral blood mononucleate cell (PBMC) cellular expansion assay; assay type: cell-based, human; conditions: tenth day of culture
Method: The effect of the compounds of this invention on the expansion of γδ T lymphocytes was investigated through an assay carried out on γδ T lymphocytes originating from the peripheral blood mononucleate cells from healthy donors (PBMCs).
The PBMCs were separated by centrifuging (Ficoll) on whole blood from samples (residual samples) from 7 healthy donors.
In control experiments the cells were treated with IPP at the same concentrations and under the same Experimental conditions.
On the tenth day of culture the cells were recovered and counted by means of a living count with Trypan Blue, and labelled with the same anti-Vd2-FITC antibody, and finally tested by cytofluorimetry to evaluate the percentage of Vγ9Vδ2 cells.
The absolute number of Vγ9Vδ2 cells was calculated using the following formula: No. of Vγ9Vδ2 cells = (total absolute no.of cells after expansion x%of Vγ9Vδ2cells after expansion)/100. [formula]

| Structure (SMILES) | EC50 [1] [µM] | activation at 10 µM [2] [%] | activation at 100 µM [2] [%] | activation at 1000 µM [2] [%] | % increase in γδ T lymphocytes producing INFγ ([2]; PBMC/IL-2, 10 µM) [%] | % increase in γδ T lymphocytes producing INFγ ([2]; PBMC/IL-2, 100 µM) [%] | % increase in γδ T lymphocytes producing INFγ ([2]; PBMC/IL-2, 1000 µM) [%] | further results |
| --- | --- | --- | --- | --- | --- | --- | --- | --- |
| O=P(O)(O)OP(=O)(O)SCCCCCl [Compound 1, S-(4-chlorobutyl) ester of the trisodium salt of thiodiphosphoric acid] | 100 | 81 | 127 | 81.5 | 131 | 94 | 132 | – |
| O=P(O)(O)OP(=O)(O)SCCOCCCl [Compound 2, S-[2-(2-chloroethoxy)ethyl] ester of the trisodium salt of thiodiphosphoric acid] | 0.39 | 60.4 | 71.8 | 765 | 56.4 | 67 | 97.3 | – |
| O=P(O)(O)OP(=O)(O)SCCC1CC1 [Compound 3, S-(2-cyclopropylethyl)ester of the trisodium salt of thiodiphosphoric acid] | 13 | 495 | 123 | 158 | – | – | – | – |
| C=CCOCCSP(=O)(O)OP(=O)(O)O [Compound 4, S-[2-(allyloxy)ethyl]ester of the trisodium salt of thiodiphosphoric acid] | 10 | 70.7 | 130 | 299 | – | – | – | – |
| C[C@H](O)CCSP(=O)(O)OP(=O)(O)O [Compound 6, S-(3-hydroxybutyl)ester of the trisodium salt of biodiphosphoric acid] | 75 | 40 | 114 | 310 | – | – | – | – |
| C=C(C)CCSP(=O)(O)OP(=O)(O)O [Compound 8, S-(3-methyl-3-butenyl)ester of the triammonium salt of thiodiphosphoric acid] | 3.75 | 39 | 92.6 | 174 | 21 | 865 | 182 | resistance to hydrolysis [3]: very much more resistant to hydrolysis; Percentage of non-hydrolysed compound ([3]; t = 0 min): 100%; Percentage of non-hydrolysed compound ([3]; t = 20 min): 90%; Percentage of non-hydrolysed compound ([3]; t = 30 min): 90%; Percentage of non-hydrolysed compound ([3]; t = 40 min): 90%; Percentage of non-hydrolysed compound ([3]; t = 50 min): 90%; Percentage of non-hydrolysed compound ([3]; t = 60 min): 90% |
| C/C(=C\CSP(=O)(O)OP(=O)(O)O)CO [Compound 9, S-[(E)-4-hydroxy-3-methyl-2-butenyl]ester of the trisodium salt of thiodiphosphoric acid] | 0.0048 | 82.3 | 175 | 464 | – | – | – | EC50 relative to the EC50 for IPP ([1]; production of TNFα, γδ T lymphocyte line): 1000 times; activity (γδ T cells producing cytokines) ([2]; in words, at 100 and 1000 µM): a very clear increase; Expansion Index ([4]; Donor A): 129.28; Expansion Index ([4]; Donor B): 80.96; Expansion Index ([4]; Donor C): 5.30; Expansion Index ([4]; Donor D): 59.10; Expansion Index ([4]; Donor E): 624.02; Expansion Index ([4]; Donor F): 35.37; Expansion Index ([4]; Donor G): 42.09 |
| C=C(C)CCO[P@@](=O)(O)OP(=O)(O)O [IPP, isopentenyl pyrophosphate, reference compound] | – | 100 | – | – | 100 | – | – | resistance to hydrolysis [3]: degrades rapidly; Percentage of non-hydrolysed compound ([3]; t = 0 min): 94%; Percentage of non-hydrolysed compound ([3]; t = 20 min): 48%; Percentage of non-hydrolysed compound ([3]; t = 30 min): 54%; Percentage of non-hydrolysed compound ([3]; t = 60 min): 27% |
